Data as given in publication PMC7320145, “Substrate Channeling via a Transient Protein-Protein Complex: The case of D-Glyceraldehyde-3-Phosphate Dehydrogenase and L-Lactate Dehydrogenase” (Scientific Reports, 2020).

Columns and labels:
[1] = biological target: T1, byGAPDH (baker's yeast GAPDH); experiment: fluorescence titration, average of four read-outs (protein quenching, NADH quenching, FRET, anisotropy); parameters: species or system Saccharomyces cerevisiae; conditions: in terms of NADH binding sites on each tetramer
T1 construct: gene TDH3; purified in-house or purchased from Sigma; apo-enzyme
Excerpt: fluorescence titration, average of four read-outs (protein quenching, NADH quenching, FRET, anisotropy) on byGAPDH (baker's yeast GAPDH)

[2] = biological target: T2, rmGAPDH (rabbit muscle GAPDH) (Oryctolagus cuniculus, UniProt P46406); experiment: as above; conditions: in terms of NADH binding sites on each tetramer; average over sites (enzyme with negative cooperativity)
T2 construct: natural full-length enzyme from rabbit muscle, homotetramer; purified in-house by established protocols or purchased from Sigma; apo-enzyme
Excerpt: fluorescence titration, average of four read-outs (protein quenching, NADH quenching, FRET, anisotropy) on rmGAPDH (rabbit muscle GAPDH)

T2 sequence (P46406 whole entry): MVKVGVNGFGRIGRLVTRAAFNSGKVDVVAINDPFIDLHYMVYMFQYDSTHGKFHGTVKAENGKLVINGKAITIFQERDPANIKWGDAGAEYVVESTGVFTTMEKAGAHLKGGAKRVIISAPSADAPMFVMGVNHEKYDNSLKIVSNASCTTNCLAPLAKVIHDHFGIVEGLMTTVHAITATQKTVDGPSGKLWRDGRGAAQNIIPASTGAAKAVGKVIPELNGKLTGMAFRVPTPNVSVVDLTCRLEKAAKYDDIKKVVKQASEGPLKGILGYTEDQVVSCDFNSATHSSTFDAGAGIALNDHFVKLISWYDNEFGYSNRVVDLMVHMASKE

byGAPDH-NADH KD fluorescence measurements [1]: 8.2 ± 0.5 micro Molar
rmGAPDH-NADH KD fluorescence measurements [2]: 0.8 ± 0.06 micro Molar
Structure (SMILES): NC(=O)C1=CN([C@@H]2O[C@H](COP(=O)(O)OP(=O)(O)OC[C@H]3O[C@@H](n4cnc5c(N)ncnc54)[C@H](O)[C@@H]3O)[C@@H](O)[C@H]2O)C=CC1 [NADH]
